According to ChEMBL document CHEMBL1158521, “Photoactive ligands probing the sweet taste receptor. Design and synthesis of highly potent diazirinyl D-phenylalanine derivatives” (Bioorg Med Chem Lett, 2010):
Activity calls are given as the source filed them. No cut-off for these calls is given here.

Columns and labels:
T1R2/T1R3 (Homo sapiens) [1] = target: T1, T1R2/T1R3 (Homo sapiens) (UniProt Q8TE23+Q7RTX0); assay: Activity at human T1R2/T1R3 expressed in HEK293T cells co-expressing Galpha-16-gust44 assessed as F340/F380 ratio at 1.25 mM in presence of T1R2/T1R3 antagonist lactisole; assay type: functional, cell-based; conditions: HEK-293T
T1R2/T1R3 (Homo sapiens) [2] = target: T1, T1R2/T1R3 (Homo sapiens); assay: Activity at human T1R2/T1R3 expressed in HEK293T cells co-expressing Galpha-16-gust44 assessed as F340/F380 ratio at 1.25 mM; assay type: cell-based; conditions: HEK-293T

SMILES	Activity (T1R2/T1R3 (Homo sapiens) [1])	Activity (T1R2/T1R3 (Homo sapiens) [2])
N[C@H](Cc1ccc(C2(C(F)(F)F)N=N2)cc1)C(=O)O	inactive	Active
N[C@H](Cc1cccc(C2(C(F)(F)F)N=N2)c1)C(=O)O	inactive	Active
